Each block holds one compound with its values, some of them ahead of it.
What was measured:
Format in all cases: cell-based
sweet receptor T1R2/T1R3 [1] = target: T1, sweet receptor T1R2/T1R3 (Homo sapiens, UniProt Q7RTX0+Q8TE23); assay: pERK1/2 assay in U2-OS cells transfected with Gα15; conditions: for pERK1/2 activation: U2-OS cells overexpressing Gα15 (6 μl/40,000 cells), 100 mM
T1 construct: Formation of green fluorescent vesicles in TRANSFLUOR U2-OS cells transfected with BacMam encoding Gα15; endogenous in cells; host or cells: TRANSFLUOR U2-OS cells stably expressing β-arrestin-GFP, transfected with BacMam Gα15
T1 sequence (Q8TE23 20-839): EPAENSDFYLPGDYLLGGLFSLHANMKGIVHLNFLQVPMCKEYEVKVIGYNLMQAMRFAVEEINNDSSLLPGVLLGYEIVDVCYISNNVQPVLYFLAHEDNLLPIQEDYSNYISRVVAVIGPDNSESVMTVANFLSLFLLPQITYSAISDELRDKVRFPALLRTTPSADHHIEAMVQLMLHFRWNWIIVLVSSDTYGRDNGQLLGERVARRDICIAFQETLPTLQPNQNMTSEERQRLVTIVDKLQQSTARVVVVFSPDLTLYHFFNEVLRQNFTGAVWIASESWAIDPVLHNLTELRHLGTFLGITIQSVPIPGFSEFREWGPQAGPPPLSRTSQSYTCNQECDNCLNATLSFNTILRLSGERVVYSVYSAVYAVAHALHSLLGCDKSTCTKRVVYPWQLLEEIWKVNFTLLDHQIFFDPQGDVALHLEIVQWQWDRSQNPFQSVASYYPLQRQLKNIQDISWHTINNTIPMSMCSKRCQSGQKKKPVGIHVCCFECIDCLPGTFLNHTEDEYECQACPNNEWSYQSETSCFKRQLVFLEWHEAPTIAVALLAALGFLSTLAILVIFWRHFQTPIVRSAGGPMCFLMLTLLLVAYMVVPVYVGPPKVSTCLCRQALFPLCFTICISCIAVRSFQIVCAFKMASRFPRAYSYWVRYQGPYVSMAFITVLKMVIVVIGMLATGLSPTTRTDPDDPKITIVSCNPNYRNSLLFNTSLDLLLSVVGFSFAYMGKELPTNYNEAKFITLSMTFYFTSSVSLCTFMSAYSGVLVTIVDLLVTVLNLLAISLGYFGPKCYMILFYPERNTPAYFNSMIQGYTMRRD
T1 sequence (Q7RTX0 21-852): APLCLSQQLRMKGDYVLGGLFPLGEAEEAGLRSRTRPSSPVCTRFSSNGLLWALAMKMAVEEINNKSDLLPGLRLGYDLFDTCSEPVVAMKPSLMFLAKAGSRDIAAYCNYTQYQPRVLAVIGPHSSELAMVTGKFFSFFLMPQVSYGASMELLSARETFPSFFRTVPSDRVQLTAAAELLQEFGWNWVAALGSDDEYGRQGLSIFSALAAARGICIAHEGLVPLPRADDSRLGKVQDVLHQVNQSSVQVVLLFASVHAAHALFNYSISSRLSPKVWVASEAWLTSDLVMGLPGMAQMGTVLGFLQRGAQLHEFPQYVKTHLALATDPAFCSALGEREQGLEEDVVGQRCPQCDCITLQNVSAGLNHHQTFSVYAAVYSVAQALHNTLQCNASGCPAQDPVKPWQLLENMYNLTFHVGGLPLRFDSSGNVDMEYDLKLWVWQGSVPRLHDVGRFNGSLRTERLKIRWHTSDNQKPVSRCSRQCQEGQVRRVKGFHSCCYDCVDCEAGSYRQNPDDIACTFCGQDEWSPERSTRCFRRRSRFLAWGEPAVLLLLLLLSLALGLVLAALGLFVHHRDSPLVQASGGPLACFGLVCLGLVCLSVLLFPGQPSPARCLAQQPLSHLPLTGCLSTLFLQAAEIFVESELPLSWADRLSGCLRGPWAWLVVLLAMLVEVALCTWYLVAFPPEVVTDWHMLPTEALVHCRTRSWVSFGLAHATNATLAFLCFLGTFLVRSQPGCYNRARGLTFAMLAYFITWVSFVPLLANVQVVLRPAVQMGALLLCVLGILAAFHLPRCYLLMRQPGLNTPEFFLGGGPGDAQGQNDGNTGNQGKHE
Experimental: (§1) U2-OS cells were transiently transfected with 0.5-12 μl of BacMam encoding G protein, gustducin (Gα15, Gα16gust44) per 40,000 cells during 24 h or 48 h. Transfected cells were seeded at density of 5,000 cells/well on PDL-coated 384-well plates.
For pERK1/2 studies, growth media was replaced with media without serum for 2 h. U2-OS cells were treated with 100 mM Sweet compounds with or without of U73122 (10 μM) and with or without […] (20 mM). Control groups of cells also received DMSO (0.1%) in medium. The fixed cells were stained with rabbit anti-phospho-p44/p42 MAPK (pERK1/2) antibodies from Cell Signaling Technologies, then with secondary Alexa 488-conjugated antibodies (Life Technology) and HOECHST 33342. Images were acquired on an ImageXpressMicro (MDC) and analyzed with MWCS Module.
The phosphorylation of ERK1/2 is a common downstream event following GPCR activation via the PLCβ2-IP3 pathway. Growth media was replaced with Dulbecco's phosphate buffered saline (DPBS) without serum for 2 h. […] For each data point, average of Mean Cell Integrated intensity and standard deviation are calculated from quadruplicate data points. […]

sweet receptor T1R2/T1R3 [2] = target: T1, sweet receptor T1R2/T1R3; assay: Calcium assay (FLIPR) in U2-OS cells transfected with Gα15; conditions: U2-OS transfected with Gα15 BacMam; 100 mM
Experimental: as §1
Calcium traces in Fluo-4AM loaded cells were recorded over time in FLIPR^Tetra (MDC) with λEX=470-495 nm and λEM=515-575 nm. The peak increase in fluorescence over baseline was determined and is expressed as relative fluorescence units (RFU).

sweet receptor T1R2/T1R3 [3] = target: T1, sweet receptor T1R2/T1R3; assay: pERK1/2 assay in parental U2-OS cells (high content imaging); conditions: 100 mM, 5, 15 and 30 minutes
Experimental: U2-OS cells were grown in McCoy media supplemented with 10% fetal bovine serum. Cells were seeded at density of 5,000 cells/well on PDL-coated 384-well plates.
For pERK1/2 studies, growth media was replaced with media without serum for 2 h. […] (20 mM). Control groups of cells also received DMSO (0.1%) in medium. […] Images were acquired on an ImageXpressMicro (MDC) and analyzed with MWCS Module.
The phosphorylation of ERK1/2 is a common downstream event following GPCR activation via the PLCβ2-IP3 pathway. Growth media was replaced with Dulbecco's phosphate buffered saline (DPBS) without serum for 2 h. […] For each data point, average of Mean Cell Integrated intensity and standard deviation are calculated from quadruplicate data points.

[4] = target: T2, sweet taste receptor T1R2/T1R3/Gα15 (Homo sapiens, UniProt Q7RTX0+Q8TE23); assay: Calcium assay (FLIPR) in JUMP-IN T-REX U2-OS cells with doxycycline-inducible T1R2/T1R3/Gα15; conditions: U73122
T2 construct: expressed in transfected cells; host or cells: JUMP-IN T-REX U2-OS cells
T2 sequence (Q8TE23 20-839): T1 sequence (Q8TE23 20-839)
T2 sequence (Q7RTX0 21-852): T1 sequence (Q7RTX0 21-852)
Experimental: JUMP-IN T-REX U2-OS cells were transfected with the PJTI-R4EXP-CMV-TO-T1R3/T1R2/Gα15-pA and JTI-R4 Integrase vectors (Life Technology).
The peak increase in fluorescence over baseline was determined and is expressed as relative fluorescence units (RFU).

Structure (SMILES): OC[C@H]1O[C@H](O[C@H]2[C@H](O)[C@@H](O)C(O)O[C@@H]2CO)[C@H](O)[C@@H](O)[C@@H]1O (mixture of isomers) [maltose]
pERK1/2 activation (sweet receptor T1R2/T1R3 [1]): increased pERK1/2 activity

Structure (SMILES): O=C(CO)[C@@H](O)[C@H](O)[C@H](O)CO [D-fructose]
Ca2+ response (sweet receptor T1R2/T1R3 [2]): significantly increased Ca^(2+) response

Structure (SMILES): O=C[C@H](O)[C@@H](O)[C@H](O)[C@H](O)CO [D-glucose]
pERK1/2 activation (sweet receptor T1R2/T1R3 [3]): induced pERK1/2 activation in a time-dependent manner
pERK1/2 activation (sweet receptor T1R2/T1R3 [3]; listed as glucose): activates pERK1/2
pERK1/2 activation (sweet receptor T1R2/T1R3 [1]): induced pERK1/2 activation in a time-dependent manner
pERK1/2 activation (sweet receptor T1R2/T1R3 [1]; listed as glucose): increased pERK1/2 activity
Ca2+ response (sweet receptor T1R2/T1R3 [2]): significantly increased Ca^(2+) response

Structure (SMILES): COc1ccc2c(c1)CC[C@@H]1[C@@H]2CC[C@]2(C)[C@@H](NCCCCCCN3C(=O)C=CC3=O)CC[C@@H]12 [U73122]
Blockade of pERK1/2 activation (sweet receptor T1R2/T1R3 [1]; U73122 10 μM, U2-OS cells transfected with Gα15): blocked
Effect on Ca2+ release upon treatment with D-glucose and D-fructose [4]: abolished
Effect on Ca2+ response after stimulation with sucrose and sucralose [4]: had no effect

Continued, values first:

Ca2+ response (sweet receptor T1R2/T1R3 [2]): induced Ca^(2+) response
Structure (SMILES): OC[C@H]1O[C@H](O[C@]2(CCl)O[C@H](CCl)[C@@H](O)[C@@H]2O)[C@H](O)[C@@H](O)[C@H]1Cl [sucralose]

Ca2+ response (sweet receptor T1R2/T1R3 [2]): significantly increased Ca^(2+) response
Structure (SMILES): OC[C@H]1O[C@@](CO)(O[C@H]2O[C@H](CO)[C@@H](O)[C@H](O)[C@H]2O)[C@@H](O)[C@@H]1O [sucrose]
